Values after ≈ are worked out from the molar mass of the structure shown. Where a SMILES comes first, the peptide text is derived from it.
Assays:
Test in all cases: microbe, parasite or virus in culture
C. auris TDG 1912 = assay type: cell-based, Candida auris; details: Candidozyma auris, TDG1912, read-out: Modal MIC (antibiogram)
Experimental: (§1) Antimicrobial activity was evaluated against a panel of 18 pathogens consisting of eight Gram-negative strains (E. coli NCTC 12923, E. coli LEC001, Pseudomonas aeruginosa PAO1, P. aeruginosa NCTC 13437, Acinetobacter baumannii ATCC 17978, A. baumannii AYE, Klebsiella pneumoniae M6, K. pneumoniae NCTC 13368), four Gram-positive strains (Staphylococcus aureus ATCC 9144, S. aureus NCTC 13616, S. aureus USA300, S. aureus 1199B) and six fungi (Candida auris TDG 1912, C. albicans NCPF 8018, C. krusei NCPF 3876, C. tropicalis NCPF 8760, and C. parapsilosis NCPF 3209). Pathogens were grown in noncation adjusted Mueller Hinton broth (MHB, for bacteria) or Roswell Park Memorial Institute (RPMI 1640) + 2% glucose (for fungi) at 37 °C with 180 rpm shaking and maintained on solid media (tryptic soy agar for bacteria and Sabouraud dextrose agar for fungi). For an antibiogram, see Suppl.
(§2) The 46 peptides were serially diluted (128 to 2 μg/mL) in media down polypropylene 96-well plates. Bacteria or fungi, diluted from an overnight culture to an OD600 of 0.01, were added to the serially diluted peptides at a 1:1 ratio resulting in a starting cell density of ∼5 × 10^5 CFU/mL. Plates were incubated at 37 °C for 20 h, and the optical density was determined spectrophotometrically at 600 nm. Minimum inhibition concentrations (MICs) were determined from a minimum of three biological repeats and are reported in μg/mL as well as μM. […] The MIC50 or MIC90 is defined as the lowest peptide concentration that results in 50% or 90% growth inhibition over a 20 h treatment period, respectively.

C. krusei NCPF 3876 = assay type: cell-based; details: for MIC: Pichia kudriavzevii, NCPF3876, read-out: Modal MIC (antibiogram); for Modal MIC50 / Modal MIC90: NCPF 3876, 20 h
Experimental: as §1, §2

C. tropicalis NCPF 8760 = assay type: cell-based; details: for MIC: Candida tropicalis, NCPF8760, read-out: Modal MIC (antibiogram); for Modal MIC50 / Modal MIC90: NCPF 8760, 20 h
Experimental: as §1, §2

C. albicans NCPF 3281 = assay type: cell-based; details: for MIC: Candida albicans, NCPF3281, read-out: Modal MIC (antibiogram); for Modal MIC50 / Modal MIC90: NCPF 3281, 20 h
Experimental: as §1, §2

[1] = system: C. parapsilosis NCPF 3209; assay type: cell-based; details: for MIC: Lodderomyces parapsilosis, NCPF3209, read-out: Modal MIC (antibiogram); for Modal MIC50 / Modal MIC90: NCPF 3209, 20 h
Experimental: as §1, §2

C. glabrata NCPF 8018 = assay type: cell-based; details: for MIC: Nakaseomyces glabratus, NCPF8018, read-out: Modal MIC (antibiogram); for Modal MIC50 / Modal MIC90: NCPF 8018, 20 h
Experimental: as §1, §2

E. coli NCTC 12923 = assay type: cell-based, Escherichia coli; details: NCTC 12923, 20 h
Experimental: as §1, §2

A. baumannii ATCC 17978 = assay type: cell-based, Acinetobacter baumannii; details: ATCC 17978, 20 h
Experimental: as §1, §2

A. baumannii AYE = assay type: cell-based, Acinetobacter baumannii; details: AYE, 20 h
Experimental: as §1, §2

[2] = system: S. aureus (MSSA) ATCC 9144; assay type: cell-based, Staphylococcus aureus; details: ATCC 9144, 20 h
Experimental: as §1, §2

SMILES | MIC (C. auris TDG 1912) [mg/L] | MIC (C. krusei NCPF 3876) [mg/L] | MIC (C. tropicalis NCPF 8760) [mg/L] | MIC (C. albicans NCPF 3281) [mg/L] | MIC [1] [mg/L] | MIC (C. glabrata NCPF 8018) [mg/L] | Modal MIC50 (C. krusei NCPF 3876) [µM] | Modal MIC90 (C. krusei NCPF 3876) [µM] | Modal MIC50 (C. tropicalis NCPF 8760) [µM] | Modal MIC90 (C. tropicalis NCPF 8760) [µM] | Modal MIC50 (C. albicans NCPF 3281) [µM] | Modal MIC90 (C. albicans NCPF 3281) [µM] | Modal MIC50 [1] [µM] | Modal MIC90 [1] [µM] | Modal MIC50 (C. glabrata NCPF 8018) [µM] | Modal MIC90 (C. glabrata NCPF 8018) [µM] | Modal MIC (E. coli NCTC 12923) [µM] | Modal MIC (A. baumannii ATCC 17978) [µM] | Modal MIC (A. baumannii AYE) [µM] | Modal MIC [2] [µM]
Cc1ccc(Oc2ccccc2-c2csc(N=C3NCCCN3)n2)c(C)c1 [Abafungin, reference compound] | > 128 | 0.25 (≈ 0.661 µM) | > 128 | > 128 | 0.25 to 0.5 (≈ 0.661 to 1.32 µM) | > 128 | – | – | – | – | – | – | – | – | – | – | – | – | – | –
C[C@@H]1[C@H](O)[C@@H](C)/C=C/C=C/C=C/C=C/C=C/C=C/C=C/[C@H](O[C@@H]2O[C@H](C)[C@@H](O)[C@H](N)[C@@H]2O)C[C@@H]2O[C@](O)(C[C@@H](O)C[C@@H](O)[C@H](O)CC[C@@H](O)C[C@@H](O)CC(=O)O[C@H]1C)C[C@H](O)[C@H]2C(=O)O [Amphotericin B, reference compound] | 0.03 (≈ 0.0325 µM) | 0.06 (≈ 0.0649 µM) | 0.03 (≈ 0.0325 µM) | 0.015 (≈ 0.0162 µM) | ≤ 0.007 | 0.03 (≈ 0.0325 µM) | – | – | – | – | – | – | – | – | – | – | – | – | – | –
CC(C)C[C@H](NC(=O)CNC(=O)[C@H](Cc1ccccc1)NC(=O)[C@H](CCCCN)NC(=O)[C@H](Cc1ccccc1)NC(=O)[C@H](C)NC(=O)[C@@H](N)CCCCN)C(=O)N[C@@H](CCCCN)C(=O)N[C@H](C(=O)N[C@H](C(N)=O)C(C)C)[C@@H](C)O [CPF-MW-10a] (H-KAFKFGLKTV-NH2) | – | – | – | – | – | – | > 110.8 | > 110.8 | > 110.8 | > 110.8 | > 110.8 | > 110.8 | > 110.8 | > 110.8 | > 110.8 | > 110.8 | – | – | – | –
CC(C)C[C@H](NC(=O)CNC(=O)[C@H](Cc1ccccc1)NC(=O)[C@H](CCCCN)NC(=O)[C@H](Cc1ccccc1)NC(=O)[C@H](C)NC(=O)[C@@H](N)CCCCN)C(=O)N[C@@H](CCCCN)C(=O)N[C@H](C(=O)N[C@H](C(=O)NCC(=O)N[C@@H](CCCCN)C(N)=O)C(C)C)[C@@H](C)O [CPF-MW-12a] (H-KAFKFGLKTVGK-NH2) | – | – | – | – | – | – | > 95.5 | > 95.5 | > 95.5 | > 95.5 | > 95.5 | > 95.5 | > 95.5 | > 95.5 | > 95.5 | > 95.5 | – | – | – | –
CC[C@H](C)[C@H](NC(=O)[C@H](CCCCN)NC(=O)[C@H](CC(C)C)NC(=O)[C@H](C)NC(=O)[C@H](C)NC(=O)[C@H](CCCCN)NC(=O)[C@H](CC(C)C)NC(=O)[C@H](C)NC(=O)[C@H](CCCCN)NC(=O)CN)C(=O)NCC(=O)N[C@@H](C)C(=O)N[C@@H](CC(N)=O)C(=O)N[C@H](C(=O)N[C@@H](CC(C)C)C(=O)NCC(=O)NCC(=O)N[C@@H](C)C(=O)N1CCC[C@H]1C(=O)N[C@@H](CCC(N)=O)C(N)=O)C(C)C [CPF-P3-20a] (H-GKALKAALKIGANVLGGAPQ-NH2) | – | – | – | – | – | – | > 65.7 | > 65.7 | > 65.7 | > 65.7 | > 65.7 | > 65.7 | > 65.7 | > 65.7 | > 65.7 | > 65.7 | 65.7 | 65.7 | 65.7 | –
CC[C@H](C)C[C@H](C)CCCCCCCCC(=O)N[C@H]1C[C@@H](O)[C@@H](NCCN)NC(=O)[C@@H]2[C@@H](O)CCN2C(=O)[C@H]([C@H](O)CCN)NC(=O)[C@H]([C@H](O)[C@@H](O)c2ccc(O)cc2)NC(=O)[C@@H]2C[C@@H](O)CN2C(=O)[C@H]([C@@H](C)O)NC1=O [Caspofungin, reference compound] | 0.03 (≈ 0.0274 µM) | ≤ 0.007 | ≤ 0.007 | ≤ 0.007 | 0.125 (≈ 0.114 µM) | ≤ 0.007 | – | – | – | – | – | – | – | – | – | – | – | – | – | –
OC(Cn1cncn1)(Cn1cncn1)c1ccc(F)cc1F [Fluconazole, reference compound] | > 128 | 8 (≈ 26.1 µM) | 16 (≈ 52.2 µM) | 0.06 to 0.125 (≈ 0.196 to 0.408 µM) | 0.25 (≈ 0.816 µM) | 4 (≈ 13.1 µM) | – | – | – | – | – | – | – | – | – | – | – | – | – | –
C[C@@H](c1ncncc1F)[C@](O)(Cn1cncn1)c1ccc(F)cc1F [Voriconazole, reference compound] | 1 (≈ 2.86 µM) | 0.06 (≈ 0.172 µM) | 0.5 (≈ 1.43 µM) | ≤ 0.007 | ≤ 0.007 | 0.125 (≈ 0.358 µM) | – | – | – | – | – | – | – | – | – | – | – | – | – | –
CC[C@H](C)[C@H](NC(=O)CNC(=O)[C@H](CCCCN)NC(=O)[C@@H](N)Cc1c[nH]c2ccccc12)C(=O)N[C@@H](CCCNC(=N)N)C(=O)NCC(=O)N[C@@H](Cc1ccc(O)cc1)C(=O)N[C@@H](CCCCN)C(=O)NCC(=O)NCC(=O)N[C@@H](Cc1ccc(O)cc1)C(=O)N[C@@H](CCCCN)C(=O)NCC(=O)N[C@@H](C)C(=O)N[C@@H](Cc1ccccc1)C(=O)N[C@@H](CCCCN)C(=O)N[C@@H](CCC(N)=O)C(=O)N[C@H](C(=O)N[C@@H](CCCCN)C(=O)N[C@@H](Cc1ccc(O)cc1)C(N)=O)[C@@H](C)O [W(Os-C)a] (H-WKGIRGYKGGYKGAFKQTKY-NH2) | – | – | – | – | – | – | > 54.4 | > 54.4 | > 54.4 | > 54.4 | > 54.4 | > 54.4 | > 54.4 | > 54.4 | > 54.4 | > 54.4 | – | 27.2 | 13.6 | 54.4
CC[C@H](C)[C@H](NC(=O)[C@H](CCCCN)NC(=O)CNC(=O)[C@@H](N)CC(C)C)C(=O)N[C@@H](C)C(=O)N[C@@H](CCCCN)C(=O)N[C@H](C(=O)NCC(=O)N[C@@H](CC(C)C)C(=O)N[C@@H](CCCCN)C(N)=O)C(C)C [XPF10a] (H-LGKIAKVGLK-NH2) | – | – | – | – | – | – | > 120.6 | > 120.6 | > 120.6 | > 120.6 | > 120.6 | > 120.6 | > 120.6 | > 120.6 | > 120.6 | > 120.6 | – | – | – | –

From paper PMC11191095, “QSAR Reveals Decreased Lipophilicity of Polar Residues Determines the Selectivity of Antimicrobial Peptide Activity” (ACS Omega, 2024)
